Laboratory results published in patent US7265246B2, “Indane derivates as muscarinic receptor agonists” (Eli Lilly and Company, priority 2003, dated 2007).
Like-named read-outs stand apart in the source and are kept apart here.

Test system: Male Sprague-Dawley rats
Settings: s.c. immediately after the sampling phase, six-hour delay

Structure (SMILES): Nc1c2c(nc3ccccc13)CCCC2 [Tacrine, tacrine]
- retention in the eight arm radial maze (3 mg/kg): not
- retention in the eight arm radial maze (10 mg/kg): significantly improved retention
